Patent publication US8084456B2, “Pyrazine-based tubulin inhibitors” (YM Biosciences Australia Pty Ltd, priority 2002, dated 2011)

What was measured:
[1] = tested on: K562 (Chronic Myeloid Leukemia) cells; assay: Cellular growth assay (MTT), K562; format: cell-based; settings: Homo sapiens, 40 hr incubation, read-out: K562 (inhibition of 50% of cellular growth)
Procedure: (§1) K562 (Chronic Myeloid Leukemia), PC3 (Prostate Cancer), and DU145 (Prostate Cancer) were obtained from the American Type Culture Collection (ATCC). K562 was grown in RPMI, with 10% FBS with Glutamx added. DU145 cells were cultured in DMED, with 10% FBS and Glutamx and MEM non-essential amino acids added. PC3 cells were grown in F12K medium, with 10% FBS and Glutamx and MEM non-essential amino acids added. All cells were grown at 37° C. in 5% CO2.

[2] = tested on: PC3 (Prostate Cancer) cells; assay: Cellular growth assay (MTT), PC3; format: cell-based; settings: Homo sapiens, PC-3, 40 hr incubation, read-out: PC3 (inhibition of 50% of cellular growth)
Procedure: as §1

[3] = target: TelJak2 (Homo sapiens, UniProt O60674); assay: Cellular growth assay (MTT), BaF3 TEL/JAK2 cells; format: cell-based; settings: 40 hr incubation, read-out: TelJak2 (inhibition of 50% of cellular growth)
[4] = target: TelJak3 (Homo sapiens, UniProt P52333); assay: Cellular growth assay (MTT), BaF3 TEL/JAK3 cells; format: cell-based; settings: 40 hr incubation, read-out: TelJak3 (inhibition of 50% of cellular growth)
[5] = tested on: DU145 (Prostate Cancer) cells; assay: Cellular growth assay (MTT), DU145; format: cell-based; settings: Homo sapiens, DU-145, 40 hr incubation, read-out: DU145 (inhibition of 50% of cellular growth)
Procedure: as §1

[6] = tested on: Tubulin; assay: Tubulin assay (turbidometric microtubule assembly); format: biochemical; settings: at 50 μM, absorbance at 340 nm, 37° C.
Procedure: Turbidometric assays of microtubule assembly were performed by incubating microtubule protein in cuvettes at 37° C. in a thermostatically controlled spectrophotometer measuring the change in absorbance at 340 nm over time. The microtubule protein was incubated with the each test compound at 0° C. and polymerisation was initiated by addition of 1 mM GTP, prior to heating to 37° C.

TelJak2, sequence (O60674 with tags, fused parts or gaps): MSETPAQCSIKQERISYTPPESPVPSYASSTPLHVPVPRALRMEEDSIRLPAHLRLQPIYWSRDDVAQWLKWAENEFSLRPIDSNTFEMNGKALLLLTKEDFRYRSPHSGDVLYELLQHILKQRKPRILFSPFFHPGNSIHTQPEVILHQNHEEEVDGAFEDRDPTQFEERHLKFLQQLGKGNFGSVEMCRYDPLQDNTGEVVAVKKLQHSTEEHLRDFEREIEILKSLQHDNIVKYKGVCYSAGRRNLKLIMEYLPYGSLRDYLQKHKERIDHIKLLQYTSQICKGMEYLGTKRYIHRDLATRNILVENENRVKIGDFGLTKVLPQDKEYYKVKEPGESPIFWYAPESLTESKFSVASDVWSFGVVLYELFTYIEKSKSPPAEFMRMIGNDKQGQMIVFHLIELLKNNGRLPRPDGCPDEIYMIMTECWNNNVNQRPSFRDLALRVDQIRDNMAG
TelJak3, sequence (P52333 with tags, fused parts or gaps): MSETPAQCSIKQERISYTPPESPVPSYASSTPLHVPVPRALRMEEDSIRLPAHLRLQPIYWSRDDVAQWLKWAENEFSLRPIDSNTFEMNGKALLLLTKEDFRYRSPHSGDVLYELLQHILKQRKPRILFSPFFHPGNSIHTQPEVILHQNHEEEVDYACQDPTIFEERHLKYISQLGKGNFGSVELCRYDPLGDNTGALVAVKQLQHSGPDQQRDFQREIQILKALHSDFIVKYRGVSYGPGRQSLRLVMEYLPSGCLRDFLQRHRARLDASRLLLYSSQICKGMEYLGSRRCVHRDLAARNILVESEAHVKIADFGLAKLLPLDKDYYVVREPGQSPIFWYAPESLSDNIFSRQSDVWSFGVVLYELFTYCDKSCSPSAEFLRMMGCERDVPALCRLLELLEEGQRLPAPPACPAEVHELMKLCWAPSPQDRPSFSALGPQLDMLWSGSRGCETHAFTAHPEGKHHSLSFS

| SMILES | IC50 [1] [µM] | IC50 [2] [µM] | IC50 [3] [µM] | IC50 [4] [µM] | IC50 [5] [µM] | Tubulin (inhibition of tubulin polymerisation) [6] |
| --- | --- | --- | --- | --- | --- | --- |
| COc1cc(-c2cncc(NC(CCCCN3CCOCC3)c3ccccc3)n2)ccc1O (centres unmarked) | > 20 | > 20 | ≤ 20 | ≤ 20 | > 20 | – |
| COc1cc(-c2cncc(NC(CCO)c3ccccc3)n2)ccc1O (centres unmarked) | > 20 | > 20 | ≤ 20 | ≤ 20 | > 20 | – |
| CCCC(Nc1cncc(-c2ccc(O)c(OC)c2)n1)c1c(F)cccc1Cl (centres unmarked) | ≤ 20 | ≤ 20 | ≤ 20 | ≤ 20 | ≤ 20 | + (inhibited tubulin polymerisation by greater than 50% at 50 μM) |
| CCCC(Nc1cncc(-c2ccc(O)c(OC)c2)n1)c1ccccc1 (centres unmarked) | ≤ 20 | ≤ 20 | ≤ 20 | ≤ 20 | ≤ 20 | + (inhibited tubulin polymerisation by greater than 50% at 50 μM) |
| CCCC(Nc1cncc(-c2cccc(OC)c2)n1)c1ccccc1 (centres unmarked) | ≤ 20 | > 20 | ≤ 20 | ≤ 20 | > 20 | – |
| CCCC(Nc1cncc(-c2ccc(O)c(OC)c2)n1)c1cccc(F)c1 (centres unmarked) | ≤ 20 | ≤ 20 | ≤ 20 | ≤ 20 | ≤ 20 | + (inhibited tubulin polymerisation by greater than 50% at 50 μM) |
| CCCC(Nc1cncc(-c2ccc(N)c(OC)c2)n1)c1cccnc1 (centres unmarked) | ≤ 20 | ≤ 20 | ≤ 20 | ≤ 20 | ≤ 20 | + (inhibited tubulin polymerisation by greater than 50% at 50 μM) |
| CCCC(Nc1cncc(-c2ccc(O)c(OC)c2)n1)c1ccc(SC)cc1 (centres unmarked) | ≤ 20 | > 20 | ≤ 20 | ≤ 20 | > 20 | – |
| COCCC(Nc1cncc(-c2ccc(O)c(OC)c2)n1)c1ccccc1 (centres unmarked) | ≤ 20 | ≤ 20 | ≤ 20 | ≤ 20 | ≤ 20 | + (inhibited tubulin polymerisation by greater than 50% at 50 μM) |
| CCCC(Nc1cncc(-c2ccc(O)c(OC)c2)n1)c1cccc(C(=O)NC)c1 (centres unmarked) | ≤ 20 | > 20 | ≤ 20 | ≤ 20 | > 20 | – |
| CCCC(Nc1cncc(-c2ccc(O)c(OC)c2)n1)c1ccc(OC)c(OC)c1 (centres unmarked) | ≤ 20 | > 20 | ≤ 20 | ≤ 20 | ≤ 20 | – |
| CCCC(Nc1cncc(-c2ccc(O)c(OC)c2)n1)c1cccc(C(=O)NC(C)C2CC2)c1 (centres unmarked) | ≤ 20 | > 20 | ≤ 20 | ≤ 20 | > 20 | – |
| CCCC(Nc1cncc(-c2ccc(O)c(OC)c2)n1)c1cccc(C#N)c1 (centres unmarked) | ≤ 20 | ≤ 20 | ≤ 20 | ≤ 20 | > 20 | – |
| CCCC(=O)Nc1ccc(-c2cncc(NC(CCC)c3cccnc3)n2)cc1OC (centres unmarked) | ≤ 20 | ≤ 20 | ≤ 20 | ≤ 20 | – | – |
| CCCOC(=O)c1cccc(C(CCC)Nc2cncc(-c3ccc(O)c(OC)c3)n2)c1 (centres unmarked) | ≤ 20 | ≤ 20 | ≤ 20 | ≤ 20 | > 20 | – |
| CCCC(Nc1cncc(-c2ccc(O)c(OC)c2)n1)c1ccc(N(CC)CC)cc1 (centres unmarked) | > 20 | > 20 | ≤ 20 | ≤ 20 | ≤ 20 | – |
| CCCC(Nc1cncc(-c2ccc(O)c(OCC)c2)n1)c1cccnc1 (centres unmarked) | ≤ 20 | ≤ 20 | ≤ 20 | ≤ 20 | > 20 | – |
| CCC[C@H](Nc1cncc(-c2ccc(NC(C)=O)c(OC)c2)n1)c1ccccc1 | – | > 20 | ≤ 20 | ≤ 20 | – | – |
| CCCC(Nc1cncc(-c2ccc(NC(C)=O)c(OC)c2)n1)c1cccnc1 (centres unmarked) | ≤ 20 | ≤ 20 | ≤ 20 | ≤ 20 | > 20 | – |
| COc1cc(-c2cncc(NC(CCC3OCCO3)c3cccc(Cl)c3)n2)ccc1O (centres unmarked) | ≤ 20 | > 20 | ≤ 20 | ≤ 20 | > 20 | – |
| CCCC(Nc1cncc(-c2ccc(O)c(OC)c2)n1)c1ccncc1 (centres unmarked) | ≤ 20 | – | ≤ 20 | ≤ 20 | > 20 | – |
| CCCC(Nc1cncc(-c2ccc(O)c(OCC)c2)n1)c1cncc(C)c1 (centres unmarked) | ≤ 20 | ≤ 20 | ≤ 20 | ≤ 20 | > 20 | – |

| SMILES | IC50 [1] [µM] | IC50 [2] [µM] | IC50 [3] [µM] | IC50 [4] [µM] | IC50 [5] [µM] | Tubulin (inhibition of tubulin polymerisation) [6] |
| --- | --- | --- | --- | --- | --- | --- |
| CCCC(Nc1cncc(-c2ccc(O)c(OC)c2)n1)c1cccc(F)c1F (centres unmarked) | ≤ 20 | > 20 | ≤ 20 | ≤ 20 | > 20 | – |
| CCCC(Nc1cncc(-c2ccc(O)c(OC)c2)n1)c1cccc(OC(F)(F)F)c1 (centres unmarked) | ≤ 20 | > 20 | ≤ 20 | ≤ 20 | > 20 | – |
| CCCC(Nc1cncc(-c2ccc(NC(C)=O)c(OC)c2)n1)c1cncc(C)c1 (centres unmarked) | ≤ 20 | > 20 | ≤ 20 | ≤ 20 | ≤ 20 | – |
| CCN(CC)CCCC(Nc1cncc(-c2ccc(O)c(OC)c2)n1)c1ccccc1 (centres unmarked) | > 20 | > 20 | ≤ 20 | ≤ 20 | > 20 | – |
| CCCC(Nc1cncc(-c2cc(OC)c(OC)c(OC)c2)n1)c1ccccc1 (centres unmarked) | ≤ 20 | > 20 | ≤ 20 | ≤ 20 | ≤ 20 | – |
| CCCC(Nc1cncc(-c2ccc(O)c(OC)c2)n1)c1cccc(C(=O)NCc2cccnc2)c1 (centres unmarked) | ≤ 20 | > 20 | ≤ 20 | ≤ 20 | > 20 | – |
| CCCC(Nc1nc(-c2ccc(O)c(OC)c2)cnc1N)c1cccc(F)c1 (centres unmarked) | ≤ 20 | > 20 | ≤ 20 | ≤ 20 | > 20 | – |
| CCC[C@H](Nc1cncc(-c2ccc(NCC)c(OC)c2)n1)c1ccccc1 | ≤ 20 | ≤ 20 | ≤ 20 | ≤ 20 | > 20 | – |
| COc1cc(-c2cncc(NC(CC(C)C)c3ccccc3)n2)ccc1O (centres unmarked) | ≤ 20 | > 20 | ≤ 20 | ≤ 20 | > 20 | – |
| CCCC(Nc1cncc(-c2ccc(O)c(OC)c2)n1)c1ccc(Cl)c(F)c1 (centres unmarked) | ≤ 20 | > 20 | ≤ 20 | ≤ 20 | > 20 | – |
| COc1cc(-c2cncc(NC(C)c3ccccn3)n2)ccc1O (centres unmarked) | > 20 | > 20 | ≤ 20 | ≤ 20 | > 20 | – |
| CCCC(Nc1cncc(-c2ccc(O)c(OC)c2)n1)c1cccc(NC(C)=O)c1 (centres unmarked) | ≤ 20 | > 20 | ≤ 20 | ≤ 20 | > 20 | – |
| CCCC(Nc1cncc(-c2ccc(O)c(OC)c2)n1)c1cc(F)ccc1F (centres unmarked) | ≤ 20 | > 20 | ≤ 20 | ≤ 20 | > 20 | – |
| CCCC(Nc1cncc(-c2ccc(O)c(OC)c2)n1)c1cccc(C(=O)NCCN(C)C)c1 (centres unmarked) | ≤ 20 | ≤ 20 | ≤ 20 | ≤ 20 | > 20 | – |
| CCCC(Nc1cncc(-c2ccc(N)c(OC)c2)n1)c1ccccc1 (centres unmarked) | ≤ 20 | > 20 | ≤ 20 | ≤ 20 | > 20 | – |
| CCCC(Nc1cncc(-c2ccc(O)c(OC)c2)n1)c1cccc([C@H](O)OCCOCC)c1 (some centres unmarked) | ≤ 20 | > 20 | ≤ 20 | ≤ 20 | > 20 | – |
| CCCC(Nc1cncc(-c2cc(OC)c(O)c(OC)c2)n1)c1ccccc1 (centres unmarked) | > 20 | > 20 | ≤ 20 | ≤ 20 | > 20 | – |
| CCN(CC)CCCCC(Nc1cncc(-c2ccc(O)c(OC)c2)n1)c1ccccc1 (centres unmarked) | > 20 | > 20 | ≤ 20 | ≤ 20 | ≤ 20 | – |
| CCCC(Nc1cncc(-c2ccc(O)c(OCC)c2)n1)c1cccc(F)c1 (centres unmarked) | ≤ 20 | ≤ 20 | ≤ 20 | ≤ 20 | > 20 | – |
| CCCC(Nc1cncc(-c2ccc3c(c2)OCO3)n1)c1cccnc1 (centres unmarked) | ≤ 20 | > 20 | ≤ 20 | ≤ 20 | > 20 | – |
| CCCC(Nc1cncc(-c2ccc(NS(C)(=O)=O)c(OC)c2)n1)c1ccc(F)cc1 (centres unmarked) | ≤ 20 | ≤ 20 | ≤ 20 | ≤ 20 | > 20 | – |
| CCCC(Nc1cncc(-c2ccc(O)c(OC)c2)n1)c1ccc(O)cc1 (centres unmarked) | > 20 | > 20 | ≤ 20 | ≤ 20 | > 20 | – |
